CC(CCc1ccccc1)NCC(O)c1ccc(O)c(C(N)=O)c1.Cl (stereo unspecified)
solubility (mole fraction)
Settings	in ethanol	in ethyl acetate	in isobutanol	in isopropanol	in methanol	in n-butanol	in n-propanol	in sec-butanol	in water
288.15 K	0.00124	0.000116	0.000136	0.00011	0.00883	0.000385	0.000478	0.000167	0.000711
293.15 K	0.00145	0.000163	0.000184	0.000164	0.0101	0.000467	0.00058	0.000211	0.000898
298.15 K	0.0017	0.000237	0.000257	0.000253	0.0114	0.000565	0.00071	0.000278	0.00118
303.15 K	0.00198	0.000302	0.000326	0.000355	0.013	0.000675	0.000841	0.000336	0.00145
308.15 K	0.00222	0.000406	0.000429	0.000492	0.0144	0.000808	0.001	0.000411	0.00172
313.15 K	0.00253	0.000531	0.00056	0.000675	0.0162	0.000967	0.00121	0.000515	0.00212
318.15 K	0.00288	0.000689	0.000729	0.000985	0.0182	0.00116	0.00144	0.000643	0.00266
323.15 K	0.0035	0.000823	0.000981	0.0014	0.0204	0.00136	0.00173	0.000804	0.00337
328.15 K	0.00395	0.00109	0.00126	0.00194	0.0228	0.00163	0.00194	0.000983	0.00409

Source: BigSolDB 2.1
